Test results published in ChEMBL document CHEMBL1909046, “DrugMatrix in vitro pharmacology data”.

Key:
[1] = DRUGMATRIX: ATPase, Na+/K+ enzyme inhibition (substrate: ATP); type: tissue-based, Sus scrofa, Heart; conditions: Not Active = under 50% inhibition at 10 µM
[2] = target: Sodium-dependent noradrenaline transporter (Homo sapiens, UniProt P23975); experiment: DRUGMATRIX: Norepinephrine Transporter radioligand binding (ligand: [125I] RTI-55); type: cell membranes, MDCK, Membrane; conditions: mdck; Not Active = under 50% inhibition at 10 µM
[3] = target: Epidermal growth factor receptor (Homo sapiens, UniProt P00533); experiment: DRUGMATRIX: Protein Tyrosine Kinase, EGF Receptor enzyme inhibition (substrate: Poly(Glu:Tyr)); type: cell-based, Insect cells; conditions: Not Active = under 50% inhibition at 10 µM
[4] = DRUGMATRIX: Potassium Channel [KATP] radioligand binding (ligand: [3H] Glyburide); type: cell membranes, Membrane; conditions: hit-t15; Not Active = under 50% inhibition at 10 µM
[5] = DRUGMATRIX: Nicotinic Acetylcholine radioligand binding (ligand: [125I] Epibatidine); type: cell membranes, Membrane; conditions: imr-32; Not Active = under 50% inhibition at 10 µM
[6] = target: T1, Interstitial collagenase (Homo sapiens, UniProt P03956); type: tissue-based, Rheumatoid synovial fibroblasts;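 also: MMP-1 enzyme inhibition assay using a peptide substrate; in other assays of this panel Not Active means under 50% inhibition at 10 µM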
T1 sequence (P03956 whole entry): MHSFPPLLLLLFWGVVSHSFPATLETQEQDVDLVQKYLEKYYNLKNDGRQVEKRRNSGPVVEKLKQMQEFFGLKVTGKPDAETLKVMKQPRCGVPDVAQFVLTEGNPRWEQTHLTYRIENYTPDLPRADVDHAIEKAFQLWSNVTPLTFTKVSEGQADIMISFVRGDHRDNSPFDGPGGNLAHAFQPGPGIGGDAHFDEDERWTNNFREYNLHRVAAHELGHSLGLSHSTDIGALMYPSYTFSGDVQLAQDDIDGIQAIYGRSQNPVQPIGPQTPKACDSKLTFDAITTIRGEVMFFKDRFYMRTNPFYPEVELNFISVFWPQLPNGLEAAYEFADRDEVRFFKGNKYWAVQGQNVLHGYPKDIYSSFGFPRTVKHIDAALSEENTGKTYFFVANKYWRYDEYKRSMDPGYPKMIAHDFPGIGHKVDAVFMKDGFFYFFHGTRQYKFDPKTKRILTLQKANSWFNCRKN

[7] = target: T2, Type-2 angiotensin II receptor (Homo sapiens, UniProt P50052); type: cell-based; conditions: cho-k1; also: in other assays of this panel Not Active means under 50% inhibition at 10 µM
T2 sequence (P50052 whole entry): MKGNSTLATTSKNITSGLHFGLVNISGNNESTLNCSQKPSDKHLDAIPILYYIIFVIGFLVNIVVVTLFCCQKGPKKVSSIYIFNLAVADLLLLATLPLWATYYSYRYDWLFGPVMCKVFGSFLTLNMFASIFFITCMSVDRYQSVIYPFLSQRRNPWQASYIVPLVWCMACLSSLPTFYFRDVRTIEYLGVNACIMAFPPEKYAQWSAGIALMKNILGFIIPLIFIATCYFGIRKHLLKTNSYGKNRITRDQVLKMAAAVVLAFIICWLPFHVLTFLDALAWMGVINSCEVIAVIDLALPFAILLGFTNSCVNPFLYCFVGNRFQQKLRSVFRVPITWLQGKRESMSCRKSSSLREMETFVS

Sequence of Sodium-dependent noradrenaline transporter (P23975 whole entry): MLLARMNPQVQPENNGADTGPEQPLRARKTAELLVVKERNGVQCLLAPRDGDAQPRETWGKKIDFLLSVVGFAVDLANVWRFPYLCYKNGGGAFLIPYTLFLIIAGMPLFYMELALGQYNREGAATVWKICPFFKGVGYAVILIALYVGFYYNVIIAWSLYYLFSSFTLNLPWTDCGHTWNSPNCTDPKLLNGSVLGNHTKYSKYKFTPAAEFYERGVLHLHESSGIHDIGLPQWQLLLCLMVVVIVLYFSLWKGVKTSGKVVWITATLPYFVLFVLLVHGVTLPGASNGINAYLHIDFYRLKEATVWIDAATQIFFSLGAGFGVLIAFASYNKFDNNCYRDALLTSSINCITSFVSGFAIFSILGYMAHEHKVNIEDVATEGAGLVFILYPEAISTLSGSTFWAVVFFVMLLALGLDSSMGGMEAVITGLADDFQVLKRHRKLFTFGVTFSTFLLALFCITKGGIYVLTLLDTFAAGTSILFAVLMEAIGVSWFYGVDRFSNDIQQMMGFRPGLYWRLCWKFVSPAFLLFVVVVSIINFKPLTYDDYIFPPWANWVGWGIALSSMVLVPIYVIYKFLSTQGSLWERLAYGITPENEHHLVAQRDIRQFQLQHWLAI
Sequence of Epidermal growth factor receptor (P00533 whole entry): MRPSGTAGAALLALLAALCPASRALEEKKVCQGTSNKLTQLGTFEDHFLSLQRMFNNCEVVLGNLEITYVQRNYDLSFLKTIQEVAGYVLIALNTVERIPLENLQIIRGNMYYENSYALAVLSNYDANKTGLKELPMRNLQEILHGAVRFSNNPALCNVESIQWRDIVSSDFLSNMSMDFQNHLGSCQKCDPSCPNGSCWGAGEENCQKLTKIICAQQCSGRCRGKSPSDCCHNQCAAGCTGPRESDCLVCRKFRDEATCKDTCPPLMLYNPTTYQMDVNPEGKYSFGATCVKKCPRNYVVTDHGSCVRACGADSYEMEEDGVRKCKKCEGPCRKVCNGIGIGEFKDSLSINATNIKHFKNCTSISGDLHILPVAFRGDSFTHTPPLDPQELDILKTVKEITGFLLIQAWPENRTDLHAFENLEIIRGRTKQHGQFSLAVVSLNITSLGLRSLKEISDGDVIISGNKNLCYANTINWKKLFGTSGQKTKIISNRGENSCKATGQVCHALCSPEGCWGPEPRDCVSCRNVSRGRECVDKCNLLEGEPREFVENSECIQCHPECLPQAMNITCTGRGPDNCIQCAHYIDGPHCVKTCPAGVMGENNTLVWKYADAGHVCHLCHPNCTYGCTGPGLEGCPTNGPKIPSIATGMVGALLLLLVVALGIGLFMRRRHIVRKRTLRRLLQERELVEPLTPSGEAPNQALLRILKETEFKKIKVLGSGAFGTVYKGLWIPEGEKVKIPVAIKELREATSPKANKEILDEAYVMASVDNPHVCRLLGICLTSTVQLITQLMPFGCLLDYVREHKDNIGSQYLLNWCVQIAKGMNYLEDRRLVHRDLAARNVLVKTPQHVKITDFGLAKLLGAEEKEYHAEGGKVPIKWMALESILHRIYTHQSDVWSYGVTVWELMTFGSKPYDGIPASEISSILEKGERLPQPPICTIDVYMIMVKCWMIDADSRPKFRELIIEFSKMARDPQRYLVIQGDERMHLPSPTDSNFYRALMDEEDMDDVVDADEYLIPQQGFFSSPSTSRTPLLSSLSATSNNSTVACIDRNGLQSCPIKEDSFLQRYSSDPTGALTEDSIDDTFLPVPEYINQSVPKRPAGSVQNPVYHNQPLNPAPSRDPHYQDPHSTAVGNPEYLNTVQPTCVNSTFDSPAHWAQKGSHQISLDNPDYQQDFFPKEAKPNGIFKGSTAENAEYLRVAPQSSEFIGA

Row | Compound | IC50 [1] | Ki [1] | IC50 [2] | IC50 ([3]; insect cells) | IC50 [4] | Ki [4] | IC50 [5] | Ki [5] | IC50 [6] | IC50 [7] | IC50 ([3]; read-out: IC50)
1 | COc1cc(CNC(=O)CCCC/C=C/C(C)C)ccc1O [CAPSAICIN] | Not Active | Not Active | Not Active | Not Active | Not Active | Not Active | Not Active | Not Active | Not Active | Not Active | –
2 | NC(=O)N1c2ccccc2C=Cc2ccccc21 [CARBAMAZEPINE] | Not Active | Not Active | Not Active | Not Active | Not Active | Not Active | Not Active | Not Active | Not Active | Not Active | –
3 | CCOC(=O)n1ccn(C)c1=S [CARBIMAZOLE] | Not Active | Not Active | Not Active | Not Active | Not Active | Not Active | Not Active | Not Active | Not Active | Not Active | –
4 | Oc1ccccc1O [CATECHOL] | Not Active | Not Active | Not Active | – | Not Active | Not Active | Not Active | Not Active | Not Active | Not Active | 26 µM
5 | CO[C@@]1(NC(=O)CSCC#N)C(=O)N2C(C(=O)O)=C(CSc3nnnn3C)CS[C@@H]21 [CEFMETAZOLE] | Not Active | Not Active | Not Active | Not Active | Not Active | Not Active | Not Active | Not Active | Not Active | Not Active | –
6 | CN(C(=O)CCCOc1ccc2[nH]c(=O)ccc2c1)C1CCCCC1 [CILOSTAMIDE] | Not Active | Not Active | Not Active | Not Active | Not Active | Not Active | Not Active | Not Active | Not Active | Not Active | –
7 | CC(C)(Oc1ccc(C2CC2(Cl)Cl)cc1)C(=O)O (stereo not given) [CIPROFIBRATE] | Not Active | Not Active | Not Active | Not Active | Not Active | Not Active | Not Active | Not Active | Not Active | Not Active | –
8 | Nc1nc(Cl)nc2c1ncn2[C@H]1C[C@H](O)[C@@H](CO)O1 [CLADRIBINE] | Not Active | Not Active | Not Active | Not Active | Not Active | Not Active | Not Active | Not Active | Not Active | Not Active | –
9 | CC[C@H]1OC(=O)[C@H](C)[C@@H](O[C@H]2C[C@@](C)(OC)[C@@H](O)[C@H](C)O2)[C@H](C)[C@@H](O[C@@H]2O[C@H](C)C[C@H](N(C)C)[C@H]2O)[C@](C)(OC)C[C@@H](C)C(=O)[C@H](C)[C@@H](O)[C@]1(C)O [CLARITHROMYCIN] | Not Active | Not Active | Not Active | Not Active | Not Active | Not Active | Not Active | Not Active | Not Active | Not Active | –
10 | CCC[C@@H]1C[C@@H](C(=O)N[C@@H]([C@H]2O[C@H](SC)[C@H](O)[C@@H](O)[C@H]2O)[C@H](C)Cl)N(C)C1 [CLINDAMYCIN] | Not Active | Not Active | Not Active | Not Active | Not Active | Not Active | Not Active | Not Active | Not Active | Not Active | –
11 | O=C(O)c1cc(=O)c2c(OCC(O)COc3cccc4oc(C(=O)O)cc(=O)c34)cccc2o1 [CROMOLYN] | Not Active | Not Active | Not Active | Not Active | Not Active | Not Active | Not Active | Not Active | Not Active | Not Active | –
